These results are taken from PMC3549563 (Journal of Neurochemistry, 2012).

One may read the EC50 as the concentration that produces a half-maximal response. High values mean a need for much substance, low ones an effect from little substance.

This test has as its target T1, ACR-16 (Caenorhabditis elegans, UniProt P48180).
T1 sequence (P48180 20-498): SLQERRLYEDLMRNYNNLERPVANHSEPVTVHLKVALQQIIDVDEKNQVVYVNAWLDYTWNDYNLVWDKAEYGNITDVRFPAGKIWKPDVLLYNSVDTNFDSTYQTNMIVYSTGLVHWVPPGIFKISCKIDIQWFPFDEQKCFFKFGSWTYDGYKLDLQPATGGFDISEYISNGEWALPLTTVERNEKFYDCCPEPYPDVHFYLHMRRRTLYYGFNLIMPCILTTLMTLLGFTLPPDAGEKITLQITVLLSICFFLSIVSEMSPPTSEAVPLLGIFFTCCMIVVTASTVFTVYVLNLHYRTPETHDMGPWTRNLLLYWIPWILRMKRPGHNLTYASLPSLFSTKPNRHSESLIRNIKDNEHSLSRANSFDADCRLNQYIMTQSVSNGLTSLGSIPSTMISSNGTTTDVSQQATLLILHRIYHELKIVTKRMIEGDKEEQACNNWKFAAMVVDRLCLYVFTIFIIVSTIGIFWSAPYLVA
Kind of test: two-electrode voltage clamp, Xenopus oocytes, peak current. Format: cell-based.

Molecules are shown by their SMILES.

In the case of `CC(=O)OCC[N+](C)(C)C` [acetylcholine], the EC50 amounted to 24 µM.

For `CN1CCC[C@H]1c1cccnc1` [nicotine], the midpoint of the response, the EC50, lay at 22 µM.
